Source: US20170174649A1, “ESTERS OF ACETALS, COMPOSITION THEREOF, METHODS OF PREPARATION AND MAIN USES THEREOF IN COSMETIC AREA” (GLYCEROSOLUTION QUIMICA LTDA, priority 2015, published 2017)

Columns and labels:
[1] = Solubility of sunscreens using cocoil glyceryl acetal as solubilizing agent; format: physicochemical; settings: solvent cocoil glyceryl acetal
[2] = Tests of oral toxicity (GHS classification); format: in vivo; settings: rules of GHS
[3] = Tests of skin irritation (OECD and GHS); format: in vivo
Source text: Two new batches of cocoil glyceryl acetal were sent to confirm the tests of dermal irritation.

[4] = Tests of ocular irritation (OECD and GHS); format: in vivo; settings: rules of OECD and GHS
Source text: In the tests of ocular irritation, the product has been classified as non-irritating according to the rules of OECD and GHS.

Compound | Solubility at 25° C. [1] | Oral toxicity classification [2] | Skin irritation finding ([3]; one of the tests) | Skin irritation classification ([3]; two tests, rules of OECD and GHS) | Ocular irritation classification [4]
CCCCC(CC)COC(=O)c1ccc(Nc2nc(Nc3ccc(C(=O)OCC(CC)CCCC)cc3)nc(Nc3ccc(C(=O)OCC(CC)CCCC)cc3)n2)cc1 (stereo not shown) [Ethylhexyl Triazone] | 16.0 grams/100 grams of cocoil glyceryl acetal | – | – | – | –
CCCCCCOC(=O)c1ccccc1C(=O)c1ccc(N(CC)CC)cc1O [Diethylamino hydroxybenzoi hexyl benzoate] | 18.0 grams/100 grams of cocoil glyceryl acetal | – | – | – | –
COc1ccc(C(=O)CC(=O)c2ccc(C(C)(C)C)cc2)cc1 [4-(1,1-dimethylethyl)-4-methoxydibenzoylmethane] | 14.0 grams/100 grams of cocoil glyceryl acetal | – | – | – | –
cocoil glyceryl acetal | – | class 5 (non-toxic) | mild dermal irritation | non-irritating | non-irritating
